# Experimental data: US11242349B2, “Ethynyl derivatives” (Hoffmann-La Roche Inc., priority 2016, dated 2022)
# Where two headings read alike, the source gives them in different places.
# Assays:
# [1] = mice treated with MPTP; cited from earlier work
# [2] = mice; preclinical model of anxiety; cited from earlier work
# [3] = mice; preclinical model of anxiety; cited from earlier work; remark: listed apart in the source
# [4] = cited from earlier work
# [5] = target: recombinant human mGlu4 expressed in HEK293 cells (Homo sapiens (Human), UniProt Q14833); assay: Ca2+ mobilization in vitro assay, mGlu4 PAM; format: cell-based; details: for EC50: HEK293 cells, human mGlu4, with EC20 of L-AP4; for Eff. (%): maximal response in % of maximal stimulatory effect of saturating L-AP4
# Experimental: Determination of EC50 values using a Ca2+ mobilization in vitro assay on recombinant human mGlu4 expressed in HEK293 cells:
# A monoclonal HEK-293 cell line stably transfected with a cDNA encoding for the human mGlu4 receptor was generated; for the work with mGlu4 Positive Allosteric Modulators (PAMs), a cell line with low receptor expression levels and low constitutive receptor activity was selected to allow the differentiation of agonistic versus PAM activity. Cells were cultured according to standard protocols (Freshney, 2000) in Dulbecco's Modified Eagle Medium with high glucose supplemented with 1 mM glutamine, 10% (vol/vol) heat-inactivated bovine calf serum, Penicillin/Streptomycin, 50 μg/ml hygromycin and 15 μg/ml blasticidin (all cell culture reagents and antibiotics from Invitrogen, Basel, Switzerland). About 24 hrs before an experiment, 5×10^4 cells/well were seeded in poly-D-lysine coated, black/clear-bottomed 96-well plates. The cells were loaded with 2.5 μM Fluo-4AM in loading buffer (1×HBSS, 20 mM HEPES) for 1 hr at 37° C. and washed five times with loading buffer. The cells were transferred into a Functional Drug Screening System 7000 (Hamamatsu, Paris, France), and 11 half logarithmic serial dilutions of test compound at 37° C. were added and the cells were incubated for 10-30 min. with on-line recording of fluorescence. […] Graphs were plotted with the % maximal stimulatory using XLfit, a curve fitting program that iteratively plots the data using Levenburg Marquardt algorithm. The single site competition analysis equation used was y=A+((B-A)/(1+((x/C)D))), where y is the % maximal stimulatory effect, A is the minimum y, B is the maximum y, C is the EC50, x is the log 10 of the concentration of the competing compound and D is the slope of the curve (the Hill Coefficient).
# FIG. 1: Illustration of the experimental outline for mGlu4 PAM Ca2+ mobilization screening assay and the determination of EC50 and % Emax values.
# recombinant human mGlu4 expressed in HEK293 cells, sequence (Q14833 33-912): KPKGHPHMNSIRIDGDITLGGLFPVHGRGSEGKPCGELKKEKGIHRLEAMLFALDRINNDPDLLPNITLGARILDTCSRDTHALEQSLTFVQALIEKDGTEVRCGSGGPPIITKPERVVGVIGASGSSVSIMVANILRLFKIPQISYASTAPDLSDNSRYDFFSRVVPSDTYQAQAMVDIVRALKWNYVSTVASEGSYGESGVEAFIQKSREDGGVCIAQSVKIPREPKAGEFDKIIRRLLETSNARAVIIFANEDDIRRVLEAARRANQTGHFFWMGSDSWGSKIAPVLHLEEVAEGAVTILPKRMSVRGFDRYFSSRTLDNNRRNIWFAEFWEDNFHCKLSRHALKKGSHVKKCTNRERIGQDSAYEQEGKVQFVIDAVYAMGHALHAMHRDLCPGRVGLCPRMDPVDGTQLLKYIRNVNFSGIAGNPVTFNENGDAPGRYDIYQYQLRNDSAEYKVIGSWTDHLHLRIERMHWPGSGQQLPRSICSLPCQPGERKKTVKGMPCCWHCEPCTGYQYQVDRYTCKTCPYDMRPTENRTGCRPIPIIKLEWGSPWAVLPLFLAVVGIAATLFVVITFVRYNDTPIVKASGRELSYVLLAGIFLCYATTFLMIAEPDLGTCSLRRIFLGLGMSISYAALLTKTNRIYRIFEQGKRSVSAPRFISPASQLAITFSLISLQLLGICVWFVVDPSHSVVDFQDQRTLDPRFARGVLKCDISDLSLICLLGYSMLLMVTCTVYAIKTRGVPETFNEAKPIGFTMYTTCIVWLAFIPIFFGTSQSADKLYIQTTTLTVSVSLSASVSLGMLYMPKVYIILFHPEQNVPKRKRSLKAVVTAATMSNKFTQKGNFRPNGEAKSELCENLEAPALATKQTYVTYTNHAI
compound,measurement,setting,value
"O=C(Nc1ccccc1)C12CC1/C(=N\O)c1ccccc1O2 (single isomer, unassigned; (-)) [(−)-PHCCC]",nigrostriatal degeneration,[1],reduced nigrostriatal degeneration
Cc1ccnc(Nc2nc(-c3cn[nH]c3)c(C)s2)n1 [ADX88178],activity in marble burying test,[2],active
same,activity in EPM,[3],active
same,profile in rat EPM test,"[4]; rat, after oral dosing",anxiolytic-like profile
same,activity in EPM,"[4]; rats, preclinical model of anxiety",active
"CCn1ncc2c1CCC[C@]21CC(=O)N(c2c(F)cc(C#Cc3ccccc3)cc2F)C(=O)N1C [Example 2, (4S)-3′-[2,6-Difluoro-4-(2-phenylethynyl)phenyl]-1-ethyl-1′-methyl-spiro[6,7-dihydro-5H-indazole-4,6′-hexahydropyrimidine]-2′,4′-dione]",EC50,[5],85 nM
same,Eff. (%),[5],136%
"CCn1cc2c(n1)CCC[C@]21CC(=O)N(c2c(F)cc(C#Cc3ccccc3)cc2F)C(=O)N1C [Example 1, (4S)-3′-[2,6-Difluoro-4-(2-phenylethynyl)phenyl]-2-ethyl-1′-methyl-spiro[6,7-dihydro-5H-indazole-4,6′-hexahydropyrimidine]-2′,4′-dione]",EC50,[5],77 nM
same,Eff. (%),[5],132%
